In the NIST ThermoML archive (doi:10.1021/je900545v):
± gives the expanded uncertainty stated by the source.

How the values were obtained:
[1] = 298.15 K, 101 kPa, Liquid
[2] = refractive index (Na D-line) (dimensionless); xn = mol fraction of the nth substance listed; details: 298.15 K, 101 kPa, Liquid
[3] = xn = mol fraction of the nth substance listed; details: 298.15 K, 101 kPa, Liquid; for electrical conductivity: DDSJ-308A Conductometer

C=CCn1cc[n+](C)c1.[Cl-] [1-allyl-3-methylimidazolium chloride]
mass density [1]: 1166 ± 2.7 kg/m3
viscosity [1]: 821 ± 310 mPa·s
electrical conductivity ([1]; DDSJ-308A Conductometer): 0.00695 ± 0.00069 S/m

C=CCn1cc[n+](C)c1.[Cl-] [1-allyl-3-methylimidazolium chloride] + O
refractive index ([2]; x1 = 0.000171): 1.3329 ± 0.0051
refractive index ([2]; x1 = 0.000362): 1.333 ± 0.0051
refractive index ([2]; x1 = 0.000553): 1.3333 ± 0.0051
refractive index ([2]; x1 = 0.000754): 1.3336 ± 0.0051
refractive index ([2]; x1 = 0.001151): 1.334 ± 0.0051
refractive index ([2]; x1 = 0.001575): 1.3346 ± 0.0051
refractive index ([2]; x1 = 0.002478): 1.336 ± 0.0051
refractive index ([2]; x1 = 0.003359): 1.3375 ± 0.0051
refractive index ([2]; x1 = 0.004859): 1.34 ± 0.0051
refractive index ([2]; x1 = 0.006386): 1.3421 ± 0.0051
refractive index ([2]; x1 = 0.008102): 1.3452 ± 0.0051
refractive index ([2]; x1 = 0.009949): 1.347 ± 0.0051
refractive index ([2]; x1 = 0.01179): 1.3495 ± 0.0051
refractive index ([2]; x1 = 0.01373): 1.352 ± 0.0051
refractive index ([2]; x1 = 0.01765): 1.3574 ± 0.0051
refractive index ([2]; x1 = 0.02156): 1.3635 ± 0.0051
refractive index ([2]; x1 = 0.02565): 1.3676 ± 0.0051
refractive index ([2]; x1 = 0.02973): 1.373 ± 0.0051
refractive index ([2]; x1 = 0.03394): 1.3775 ± 0.0051
refractive index ([2]; x1 = 0.04442): 1.3888 ± 0.0051
refractive index ([2]; x1 = 0.05536): 1.3995 ± 0.005
refractive index ([2]; x1 = 0.06646): 1.4084 ± 0.005
refractive index ([2]; x1 = 0.07857): 1.4176 ± 0.005
refractive index ([2]; x1 = 0.09138): 1.4315 ± 0.005
refractive index ([2]; x1 = 0.1143): 1.4464 ± 0.005
refractive index ([2]; x1 = 0.1369): 1.4574 ± 0.005
refractive index ([2]; x1 = 0.1616): 1.4673 ± 0.005
refractive index ([2]; x1 = 0.1867): 1.4742 ± 0.005
refractive index ([2]; x1 = 0.211): 1.4831 ± 0.005
electrical conductivity ([3]; x1 = 0.000171): 0.0795 ± 0.0079 S/m
electrical conductivity ([3]; x1 = 0.000362): 0.169 ± 0.017 S/m
electrical conductivity ([3]; x1 = 0.000553): 0.258 ± 0.026 S/m
electrical conductivity ([3]; x1 = 0.000754): 0.345 ± 0.035 S/m
electrical conductivity ([3]; x1 = 0.001151): 0.503 ± 0.05 S/m
electrical conductivity ([3]; x1 = 0.001575): 0.665 ± 0.067 S/m
electrical conductivity ([3]; x1 = 0.002478): 0.969 ± 0.097 S/m
electrical conductivity ([3]; x1 = 0.003359): 1.24 ± 0.12 S/m
electrical conductivity ([3]; x1 = 0.004859): 1.65 ± 0.17 S/m
electrical conductivity ([3]; x1 = 0.006386): 2.66 ± 0.27 S/m
electrical conductivity ([3]; x1 = 0.008102): 3.02 ± 0.3 S/m
electrical conductivity ([3]; x1 = 0.009949): 3.29 ± 0.33 S/m
electrical conductivity ([3]; x1 = 0.01179): 3.69 ± 0.37 S/m
electrical conductivity ([3]; x1 = 0.01373): 3.94 ± 0.39 S/m
electrical conductivity ([3]; x1 = 0.01765): 4.65 ± 0.47 S/m
electrical conductivity ([3]; x1 = 0.02156): 5.33 ± 0.53 S/m
electrical conductivity ([3]; x1 = 0.02565): 5.97 ± 0.6 S/m
electrical conductivity ([3]; x1 = 0.02973): 6.23 ± 0.62 S/m
electrical conductivity ([3]; x1 = 0.03394): 7.15 ± 0.72 S/m
electrical conductivity ([3]; x1 = 0.04442): 6.83 ± 0.68 S/m
electrical conductivity ([3]; x1 = 0.05536): 7.66 ± 0.77 S/m
electrical conductivity ([3]; x1 = 0.06646): 7.92 ± 0.79 S/m
electrical conductivity ([3]; x1 = 0.07857): 7.47 ± 0.75 S/m
electrical conductivity ([3]; x1 = 0.09138): 7.2 ± 0.72 S/m
electrical conductivity ([3]; x1 = 0.1143): 6.48 ± 0.65 S/m
electrical conductivity ([3]; x1 = 0.1369): 5.67 ± 0.57 S/m
electrical conductivity ([3]; x1 = 0.1616): 4.92 ± 0.49 S/m
electrical conductivity ([3]; x1 = 0.1867): 4.13 ± 0.41 S/m
electrical conductivity ([3]; x1 = 0.211): 3.91 ± 0.39 S/m
electrical conductivity ([3]; x1 = 0.2245): 3.82 ± 0.38 S/m
electrical conductivity ([3]; x1 = 0.3233): 2.63 ± 0.26 S/m
electrical conductivity ([3]; x1 = 0.5083): 0.00974 ± 0.00097 S/m
electrical conductivity ([3]; x1 = 1): 0.00695 ± 0.00069 S/m
mass density ([3]; x1 = 0.000171): 1005 ± 7.4 kg/m3
viscosity ([3]; x1 = 0.000171): 0.8974 ± 0.049 mPa·s
mass density ([3]; x1 = 0.000362): 1007.5 ± 7.4 kg/m3
viscosity ([3]; x1 = 0.000362): 0.8946 ± 0.049 mPa·s
mass density ([3]; x1 = 0.000553): 1001 ± 7.3 kg/m3
viscosity ([3]; x1 = 0.000553): 0.8979 ± 0.049 mPa·s
mass density ([3]; x1 = 0.000754): 1004.5 ± 7.4 kg/m3
viscosity ([3]; x1 = 0.000754): 0.8954 ± 0.049 mPa·s
mass density ([3]; x1 = 0.001151): 1004 ± 7.4 kg/m3
viscosity ([3]; x1 = 0.001151): 0.9008 ± 0.049 mPa·s
mass density ([3]; x1 = 0.001575): 1004.7 ± 7.4 kg/m3
viscosity ([3]; x1 = 0.001575): 0.9038 ± 0.049 mPa·s
mass density ([3]; x1 = 0.002478): 1003 ± 7.3 kg/m3
viscosity ([3]; x1 = 0.002478): 0.9234 ± 0.05 mPa·s
mass density ([3]; x1 = 0.003359): 1004.2 ± 7.4 kg/m3
viscosity ([3]; x1 = 0.003359): 0.9356 ± 0.051 mPa·s
mass density ([3]; x1 = 0.004859): 1005 ± 7.3 kg/m3
viscosity ([3]; x1 = 0.004859): 0.9802 ± 0.053 mPa·s
mass density ([3]; x1 = 0.006386): 1006 ± 7.3 kg/m3
viscosity ([3]; x1 = 0.006386): 0.9919 ± 0.054 mPa·s
mass density ([3]; x1 = 0.008102): 1007.6 ± 7.4 kg/m3
viscosity ([3]; x1 = 0.008102): 1.043 ± 0.056 mPa·s
mass density ([3]; x1 = 0.009949): 1008.5 ± 7.3 kg/m3
viscosity ([3]; x1 = 0.009949): 1.061 ± 0.057 mPa·s
mass density ([3]; x1 = 0.01179): 1011.6 ± 7.4 kg/m3
viscosity ([3]; x1 = 0.01179): 1.093 ± 0.058 mPa·s
mass density ([3]; x1 = 0.01373): 1016.5 ± 7.4 kg/m3
viscosity ([3]; x1 = 0.01373): 1.129 ± 0.06 mPa·s
mass density ([3]; x1 = 0.01765): 1017.2 ± 7.4 kg/m3
viscosity ([3]; x1 = 0.01765): 1.193 ± 0.063 mPa·s
mass density ([3]; x1 = 0.02156): 1021.8 ± 7.4 kg/m3
viscosity ([3]; x1 = 0.02156): 1.252 ± 0.066 mPa·s
mass density ([3]; x1 = 0.02565): 1024 ± 7.4 kg/m3
viscosity ([3]; x1 = 0.02565): 1.322 ± 0.069 mPa·s
mass density ([3]; x1 = 0.02973): 1026 ± 7.4 kg/m3
viscosity ([3]; x1 = 0.02973): 1.394 ± 0.073 mPa·s
mass density ([3]; x1 = 0.03394): 1029.2 ± 7.4 kg/m3
viscosity ([3]; x1 = 0.03394): 1.473 ± 0.076 mPa·s
mass density ([3]; x1 = 0.04442): 1040 ± 7.4 kg/m3
viscosity ([3]; x1 = 0.04442): 1.677 ± 0.086 mPa·s
mass density ([3]; x1 = 0.05536): 1046.8 ± 7.4 kg/m3
viscosity ([3]; x1 = 0.05536): 1.9 ± 0.097 mPa·s
mass density ([3]; x1 = 0.06646): 1054.2 ± 7.4 kg/m3
viscosity ([3]; x1 = 0.06646): 2.166 ± 0.11 mPa·s
mass density ([3]; x1 = 0.07857): 1061.8 ± 7.4 kg/m3
viscosity ([3]; x1 = 0.07857): 2.475 ± 0.12 mPa·s
mass density ([3]; x1 = 0.09138): 1073 ± 7.4 kg/m3
viscosity ([3]; x1 = 0.09138): 3.118 ± 0.15 mPa·s
mass density ([3]; x1 = 0.1143): 1084.1 ± 7.3 kg/m3
viscosity ([3]; x1 = 0.1143): 3.867 ± 0.19 mPa·s
mass density ([3]; x1 = 0.1369): 1092 ± 7.2 kg/m3
viscosity ([3]; x1 = 0.1369): 4.806 ± 0.23 mPa·s
mass density ([3]; x1 = 0.1616): 1100 ± 7.1 kg/m3
viscosity ([3]; x1 = 0.1616): 5.974 ± 0.28 mPa·s
mass density ([3]; x1 = 0.1867): 1105.8 ± 6.9 kg/m3
viscosity ([3]; x1 = 0.1867): 7.441 ± 0.33 mPa·s
mass density ([3]; x1 = 0.211): 1110.2 ± 6.7 kg/m3
viscosity ([3]; x1 = 0.211): 7.9 ± 0.35 mPa·s
mass density ([3]; x1 = 0.2245): 1108.9 ± 6.6 kg/m3
viscosity ([3]; x1 = 0.2245): 8.518 ± 0.37 mPa·s
mass density ([3]; x1 = 0.3233): 1127.8 ± 5.9 kg/m3
viscosity ([3]; x1 = 0.3233): 18 ± 0.72 mPa·s
mass density ([3]; x1 = 0.5083): 1132.8 ± 4.6 kg/m3
viscosity ([3]; x1 = 0.5083): 48 ± 2 mPa·s
mass density ([3]; x1 = 1): 1166 ± 2.7 kg/m3
viscosity ([3]; x1 = 1): 821 ± 310 mPa·s
